Experimental data: ChEMBL document CHEMBL1770064, “Penicisteroids A and B, antifungal and cytotoxic polyoxygenated steroids from the marine alga-derived endophytic fungus Penicillium chrysogenum QEN-24S” (Bioorg Med Chem Lett, 2011)
Values after ≈ are worked out from the molar mass of the structure shown. Active and inactive are the calls of the source. No cut-off for these calls is given here.

Tests used:
SW1990 = assay: Cytotoxicity against human SW1990 cells; assay type: functional, cell-based
Alternaria brassicae = assay: Antifungal activity against Alternaria brassicae assessed as diameter of the zone of inhibition at 20 ug/disk by disk diffusion method; assay type: functional; conditions: for zone of inhibition at 20 µg/disc: read-out: DIZ
NCI-H460 = assay: Cytotoxicity against human NCI-H460 cells; assay type: functional, cell-based
Aspergillus niger = assay: Antifungal activity against Aspergillus niger assessed as diameter of the zone of inhibition at 20 ug/disk by disk diffusion method; assay type: functional; conditions: for zone of inhibition at 20 µg/disc: read-out: DIZ
HeLa = assay: Cytotoxicity against human HeLa cells; assay type: functional, cell-based

Structure (SMILES)	IC50 (SW1990)	zone of inhibition at 20 µg/disc (Alternaria brassicae)	IC50 (NCI-H460)	zone of inhibition at 20 µg/disc (Aspergillus niger)	IC50 (HeLa)	Activity (Alternaria brassicae)	Activity (Aspergillus niger)
CC(=O)O[C@H]1C[C@H]2[C@@H]3[C@@H](O)[C@@H](O)[C@H]4C[C@@H](O)CC[C@]4(C)[C@H]3[C@@H](O)C[C@]2(C)[C@H]1[C@H](C)/C=C/[C@H](C)C(C)C	31 µg/mL (≈ 61.2 µM)	8 mm	40 µg/mL (≈ 78.9 µM)	18 mm	15 µg/mL (≈ 29.6 µM)		
C[C@@H]1[C@H](O)[C@@H](C)/C=C/C=C/C=C/C=C/C=C/C=C/C=C/[C@H](O[C@@H]2O[C@H](C)[C@@H](O)[C@H](N)[C@@H]2O)C[C@@H]2O[C@](O)(C[C@@H](O)C[C@@H](O)[C@H](O)CC[C@@H](O)C[C@@H](O)CC(=O)O[C@H]1C)C[C@H](O)[C@H]2C(=O)O [AMPHOTERICIN B]		16 mm		24 mm			
CC(=O)O[C@H]1C[C@H]2[C@H]3[C@H]([C@@H](O)C[C@]2(C)[C@H]1[C@H](C)/C=C/[C@H](C)C(C)C)[C@@]1(C)CC[C@H](O)CC1=C[C@@H]3O						inactive	inactive
CC(=O)O[C@H]1C[C@H]2[C@H]3[C@H]([C@@H](O)C[C@]2(C)[C@H]1[C@H](C)/C=C/[C@H](C)C(C)C)[C@@]1(C)CC[C@H](O)C[C@@H]1C(=O)[C@@H]3O [ANICEQUOL]		6 mm					Active
